Here are results for 20 compounds from patent US12583839B2, “PD-L1 antagonist compound” (ADLAI NORTYE BIOPHARMA CO., LTD., priority 2019, dated 2026).

This assay concerns the target T1, PD-1/PD-L1 (Homo sapiens, UniProt Q9NZQ7).
T1 construct: 60535 (PD-1/NFAT-Reporter-Jurkat); host or cells: CHO cells expressing PD-L1; Jurkat cells expressing PD-1
Kind of assay: Detection of biological activity of PD-1/PD-L1 signaling inhibition at the cellular level (NFAT luciferase reporter, PD-1/NFAT-Reporter-Jurkat cells co-cultured with TCR activator/PD-L1-CHO cells). The assay is classed as cell-based. The conditions noted are these: PD-1/NFAT-Reporter-Jurkat + TCR activator/PD-L1-CHO co-culture, 6 hours; Atezolizumab as positive control. The source says: Detection of Biological Activity of PD-1/PD-L1 Signaling Inhibition at the Cellular Level
This detection method is used for evaluating the biological activity of the compounds described in the present invention at the cellular level.
This detection method uses the luciferase reporter gene method to detect the biological activity of the compound on the inhibition of PD-1/PD-L1 signal at the cellular level. PD-1/NFAT—Reporter—Jurkat cells stably express human PD-1 and express the luciferase reporter gene regulated by NFAT elements; TCR activator/PD-L1-CHO cells stably express human PD-L1 and TCR activator elements. When the two cell lines were co-cultured, the binding of PD-1/PD-L1 inhibited the TCR signaling pathway, thereby inhibiting the expression of the downstream NFAT-controlled luciferase reporter gene. When PD-1/PD-L1 antibody or inhibitor is added, this inhibitory effect is reversed and luciferase is expressed, so that the effect of PD-1/PD-L1 inhibitor on luciferase activity can be detected.
PD-1/NFAT—Reporter—Jurkat cell (Cat: 60535) and TCR activator/PD-L1-CHO cell (Cat: 60536) were purchased from BPS Bioscience. Anti-human PD-L1 antibody (Atezolizumab, Cat: A2004) was purchased from Selleck; luciferase reporter gene expression detection kit (ONE-Glo™ Luciferase Assay System, Cat: E6120) was purchased from Promega; multifunction plate reader (SpectraMax i3x) was purchased from Molecular Devices.
The PD-1/NFAT—Reporter—Jurkat cells and TCR activator/PD-L1-CHO cells were cultured according to the routine cell culture protocol.
TCR activator/PD-L1-CHO cells were harvested and seeded into a 96-well culture plate at 35,000 cells/well in a medium volume of 100 μl and incubated overnight at 37° C. The next day, the medium was discarded, compound was added and incubated for 30 minutes, while a solvent control (dimethyl sulfoxide, DMSO, final concentration of 0.1%) and PD-L1 antibody (Atezolizumab, final concentration of about 10 nM) as positive controls were set. PD-1/NFAT-reporter-Jurkat cells were then added. After culturing for 6 hours, the luciferase activity was detected according to the instructions of the luciferase detection reagent.
Using PD-L1 antibody as a positive control, calculate the inhibition rate of PD-1/PD-L1 binding of the test compound (%)=(chemiluminescence value of compound treated wells/average value of chemiluminescence value of solvent control wells−1)/(average value of chemiluminescence value of PD-L1 antibody well/average value of chemiluminescence value of solvent control well−1)×100%.
According to the above detection method, the compounds of the present invention were evaluated for their biological activity at the cellular level, and the activity results are shown in the following table.

T1 sequence (Q9NZQ7 19-290): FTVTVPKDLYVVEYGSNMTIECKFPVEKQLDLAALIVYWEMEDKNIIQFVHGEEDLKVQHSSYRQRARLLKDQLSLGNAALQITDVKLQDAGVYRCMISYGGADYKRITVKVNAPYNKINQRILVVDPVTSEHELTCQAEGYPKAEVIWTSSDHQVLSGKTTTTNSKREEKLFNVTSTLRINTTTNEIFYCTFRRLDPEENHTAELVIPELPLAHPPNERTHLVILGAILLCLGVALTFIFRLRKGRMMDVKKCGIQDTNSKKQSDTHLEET

For `COc1cc(Cn2ncc3c(-c4cccc(-c5ccc(CNC[C@@H]6CCC(=O)N6)c(OC(F)(F)F)c5)c4Cl)cccc32)c(Cl)cc1CN1CC[C@@H](C(=O)O)C1` [Compound 51], the EC50 was determined as 692 nM.

For the compound `COc1cc(-c2cccc(-c3cccc4c3cnn4Cc3cc(OC)c(CN4CC[C@@H](C(=O)O)C4)cc3Cl)c2Cl)ccc1CNC[C@@H]1CCC(=O)N1` [Compound 52], the EC50 stood at 92 nM.

For `COc1cc(-c2cccc(-c3cccc4c3cnn4Cc3cc(OC)c(CN[C@@H](CO)C(=O)O)cc3Cl)c2Cl)ccc1CNC[C@@H]1CCC(=O)N1` [Compound 53], the EC50 worked out at 24 nM.

Turning to `COc1cc(-c2cccc(-c3cccc4c3cnn4Cc3cc(OC)c(CNC[C@H]4CC[C@H](C(=O)O)CC4)cc3Cl)c2Cl)ccc1CNC[C@@H]1CCC(=O)N1` [Compound 54], the EC50 was 38 nM.

As for `COc1cc(-c2cccc(-c3cccc4c3cnn4Cc3cc(OC)c(CN(C)C[C@H]4CC[C@H](C(=O)O)CC4)cc3Cl)c2Cl)ccc1CNC[C@@H]1CCC(=O)N1` [Compound 55], the EC50 is 66 nM.

As to `COc1cc(-c2cccc(-c3cccc4c3cnn4Cc3cc(OC)c(CN[C@H]4CC[C@H](C(=O)O)CC4)cc3Cl)c2Cl)ccc1CNC[C@@H]1CCC(=O)N1` [Compound 56], the EC50 turned out to be 50 nM.

Regarding `COc1cc(-c2cccc(-c3cccc4c3cnn4Cc3cc(OC)c(CN(C)[C@H]4CC[C@H](C(=O)O)CC4)cc3Cl)c2Cl)ccc1CNC[C@@H]1CCC(=O)N1` [Compound 57], the EC50 worked out at 38 nM.

Take `COc1cc(-c2cccc(-c3cccc4c3cnn4Cc3cc(OC)c(CNC[C@@H]4CCC(=O)N4)cc3Cl)c2Cl)ccc1CNC[C@@H]1CCC(=O)N1` [Compound 58]: the EC50 worked out at 69 nM.

Consider `COc1cc(-c2cccc(-c3cccc4c3cnn4Cc3cc(OC)c(CN[C@H]4CC[C@@H](C(=O)O)CC4)cc3Cl)c2Cl)ccc1CNC[C@@H]1CCC(=O)N1` [Compound 59], for which the EC50 is 37 nM.

With `COc1cc(-c2cccc(-c3cccc4c3cnn4Cc3cc(OC)c(CN(C)[C@H]4CC[C@@H](C(=O)O)CC4)cc3Cl)c2Cl)ccc1CNC[C@@H]1CCC(=O)N1` [Compound 60], the EC50 was determined as 33 nM.

In the case of `COc1cc(Cn2ncc3c(-c4cccc(-c5ccc(CN6CC[C@@H](O)C6)cc5)c4Cl)cccc32)c(Cl)cc1CNC[C@H]1CC[C@H](C(=O)O)CC1` [Compound 63], the EC50 was 950 nM.

In the case of `COc1cc(Cn2ncc3c(-c4cccc(-c5ccc(CN6CC[C@@H](C(=O)O)C6)cc5)c4Cl)cccc32)c(Cl)cc1CN1CC[C@@H](O)C1` [Compound 69], the EC50 turned out to be 805 nM.

With `COc1cc(Cn2ncc3c(-c4cccc(-c5ccc(CN6CC[C@@H](C(=O)O)C6)c(OC)c5)c4Cl)cccc32)c(Cl)cc1CNC[C@@H]1CCC(=O)N1` [Compound 70], the EC50 was 222 nM.

On to `COc1cc(Cn2ncc3c(-c4cccc(-c5ccc(CN6CC[C@@H](C(=O)O)C6)c(OC)c5)c4Cl)cccc32)c(Cl)cc1CN1CC[C@@H](O)C1` [Compound 71], for which the EC50 was found to be 693 nM.

Turning to `COc1cc(Cn2ncc3c(-c4cccc(-c5ccc(CNC[C@@H]6CCC(=O)N6)cc5)c4Cl)cccc32)c(C#N)cc1CN[C@@H](CO)C(=O)O` [Compound 75], the EC50 was found to be 142 nM.

Take `COc1cc(Cn2ncc3c(-c4cccc(-c5ccc(CNC[C@@H]6CCC(=O)N6)cc5)c4Cl)cccc32)c([N+](=O)[O-])cc1CN[C@@H](CO)C(=O)O` [Compound 76]: the EC50 came to 49 nM.

On to `COc1nc(Cn2ncc3c(-c4cccc(-c5ccc(CNC[C@@H]6CCC(=O)N6)cc5)c4Cl)cccc32)c(Cl)cc1CN[C@@H](CO)C(=O)O` [Compound 80], for which the EC50 is 302 nM.

`COc1cc(Cn2nc(F)c3c(-c4cccc(-c5ccc(CNC[C@@H]6CCC(=O)N6)cc5)c4Cl)cccc32)c(Cl)cc1CN[C@@H](CO)C(=O)O` [Compound 83]: the EC50 is 92 nM.

For the compound `COc1cc(Cn2ncc3c(-c4cccc(-c5ccc(CNC[C@@H]6CCC(=O)N6)cc5)c4Cl)cccc32)c(Cl)cc1CNCc1nnn[nH]1` [Compound 85], the EC50 was determined as 469 nM.

With `O=C(O)COc1cc(Cn2ncc3c(-c4cccc(-c5ccc(CNC[C@@H]6CCC(=O)N6)cc5)c4Cl)cccc32)c(Cl)cc1CNCCO` [Compound 86], the EC50 amounted to 395 nM.
